Laboratory results published in patent US20220002806A1, “BIOMARKER” (ERBER AKTIENGESELLSCHAFT, priority 2018, published 2022).

System: miRNAs in uterus tissue
Test: Small RNA sequencing (RNA-Seq) of miRNAs in uterus tissue of ZEN-exposed piglets
Type: in vivo, pig (Sus scrofa)
Settings: for fold change of ssc-miRNA-542-3p in uterus compared to the control group: highest fold change of the group
Excerpt: Weaned female piglets (sow: Landrace×Large White, boar: Pietrain; 30+/−2 days old) were obtained from a local producer and individually tagged. Piglets were housed in slatted floor pens under controlled environmental conditions. After an acclimatization period of seven days, twenty-four female piglets were selected based on both body weight and vulva size, and allocated to one of four groups (6 animals/group). Piglets received either blank feed (negative control; Ctrl) or feed contaminated with ZEN in three increasing concentrations (ZEN low: 0.17 mg/kg diet; ZEN medium: 1.5 mg/kg diet; ZEN high: 4.6 mg/kg diet). During the 28-day experimental period, each treatment group was given free access to water and the assigned diet. The pigs were observed daily and weighed weekly.
After 28 days of dietary exposure to the experimental diets, pigs were anesthetized by intramuscular injection of ketamine (0.1 mL/kg body weight (b.w.) Narketan®, Vétoquinol GmbH, Ravensburg, Germany) and azaperone (0.03 mL/kg b.w.; Stresnil®, Janssen-Cilag, Neuss, Germany). Subsequently, animals were euthanized by intracardial injection of T61® (Intervet, UnterschleiBheim, Germany; 0.1 ml/kg b.w.). The whole reproductive tract was collected, weighed and examined for any clinical signs. Small pieces of the corpus uteri and the mid-jejunum were dissected, placed into 1 mL of RNAlater, and stored overnight at 4° C. The next day, all the tissue samples were transferred to −80° C. for long-term storage, and until processed for transcriptomics analysis.
miRNA Extraction and Library Preparation: A total of 18 animals was used for investigations on the miRNA profile in the tissues: 6 from Ctrl, 4 from ZEN low, 4 from ZEN medium, and 4 from ZEN high. About 30 mg of tissue from uterus or jejunum was disrupted via a bead-beating step, and the total RNA, including RNA from approximately 18 nucleotides upwards, was extracted and purified with the miRNeasy Mini Kit (Qiagen, Hilden, Germany), following the manufacturer's instructions. The concentration of RNA was first estimated on the Nanodrop (Termo Scientifc NanoDrop 2000, USA), and again with the Agilent 2100 Bioanalyzer (Agilent Technologies, Germany) during the measurement of the RIN for determining the RNA quality. In total 1 μg of total RNA was used for construction of small RNA sequencing libraries using the NEBNext Multiplex SmallRNA Library preparation set for Illumina (New England Biolabs). Adapter-ligated total RNA was reverse transcribed into cDNA, which was used as template for PCR amplification (15 cycles) using Illumina's SR Primer and Index Primers 1-18. Barcoded DNA libraries were purified using the QIAQuick PCR purification protocol (Qiagen, Hilden, Germany) and quantified using the DNA 1000 high sensitivity chip (Agilent Technologies, Germany). Purified samples were pooled at equimolar (50 nM) concentration. Size selection was performed using gel purification to select for insert sizes between 18 and 50 nucleotides. The final multiplexed (n=18) libraries were sequenced on a NextSeq 500 sequencing instrument according to the manufacturer instructions. Raw data was de-multiplexed and FASTQ files for each sample was generated using the bcl2fastq software (Illumina inc.). FASTQ data was checked using the FastQC online tool (http://www.bioinformatics.babraham.ac.uk/projects/fastqc/).
RNA sequencing (RNA-Seq) Bioinformatics Analysis: Total reads were adapter trimmed using Cutadapt and quality filtered (Q-Score >30) using the FastQC tool. Trimmed and quality filtered reads were aligned to reference miRNA sequences in miRBase release 21 (www.mirbase.org; Kozomora and Griffiths-Jones. 2014. Nucleid Acids Research, 42, D68-D73) using bowtie2. Subsequently, reads were mapped against the Sus scrofa genome assembly Sscrofa10.2 as well as Ensembl small non-coding RNA reference databases. Reads were normalized to the total read count per library to generate tags per million (TPM) values. […]

[1] = Ctrl vs ZEN high (4.6 mg/kg diet), 28 days in feed
[2] = Ctrl vs ZEN low (0.17 mg/kg diet), 28 days in feed
[3] = ZEN high group (4.6 mg/kg diet) vs Ctrl, 28 days in feed
[4] = both ZEN medium (1.5 mg/kg diet) and ZEN high (4.6 mg/kg diet) group vs Ctrl, 28 days in feed

C[C@H]1CCCC(=O)CCC/C=C/c2cc(O)cc(O)c2C(=O)O1 [ZEN, (2E,11S)-15,17-dihydroxy-11-methyl-12-oxabicyclo[12.4.0]octadeca-1(18),2,14,16-tetraene-7,13-dione]
log2 fold change of hsa-miR-135b-5p in uterus [1]: log2 fold change Ctrl vs ZEN high ≤ −1.5,
log2 fold change of hsa-miR-301a-5p in uterus [1]: log2 fold change Ctrl vs ZEN high ≤ −1.5,
log2 fold change of put-miR-300 in uterus [1]: ZEN high ≤ −1.5, TPM > 10
log2 fold change of ssc-miR-22-3p in uterus [1]: Ctrl vs ZEN high ≥ 1.5; TPM > 10
log2 fold change of ssc-miR-129a in uterus [1]: log2 fold change Ctrl vs ZEN high < −1.5,
log2 fold change of ssc-miR-135 in uterus [1]: ZEN high ≤ −1.5, TPM > 10
log2 fold change of ssc-miR-143-5p in uterus [1]: ZEN high ≥ −1.5, TPM > 10
log2 fold change of ssc-miR-187 in uterus [1]: Crtrl vs ZEN high ≤ −1.5
log2 fold change of ssc-miR-204 in uterus [1]: log2 fold change Ctrl vs ZEN high ≤ −1.5,
log2 fold change of ssc-miR-432-5p in uterus [1]: change Ctrl vs ZEN high ≥ 1.5, specificity
log2 fold change of ssc-miR-493-3p in uterus [1]: log2 fold change Ctrl vs ZEN high ≥ 1.5,
log2 fold change of ssc-miR-542-3p in uterus [1]: ZEN high ≥ 1.5, TPM > 10
log2 fold change of ssc-miR-758 in uterus [1]: change Ctrl vs ZEN high ≥ 1.5
log2 fold change of hsa-miR-135b-5p in uterus [2]: log2 fold change Ctrl vs ZEN low ≤ −0.3,
log2 fold change of hsa-miR-301a-5p in uterus [2]: log2 fold change Ctrl vs ZEN low ≤ −0.3,
log2 fold change of ssc-miR-22-3p in uterus [2]: change Ctrl vs ZEN low ≥ 0.3, log2 fold
log2 fold change of ssc-miR-133a-5p in uterus [2]: change Ctrl vs ZEN low ≥ 0.3, TPM > 10
log2 fold change of ssc-miR-195 in uterus [2]: change Ctrl vs ZEN low ≥ 0.3, TPM > 10
log2 fold change of ssc-miR-486 in uterus [2]: change Ctrl vs ZEN low ≥ 0.3, TPM > 10
log2 fold change of ssc-miR-493-5p in uterus [2]: change Ctrl vs ZEN low ≥ 0.3, TPM > 10,
log2 fold change of ssc-miR-497 in uterus [2]: change Ctrl vs ZEN low ≥ 0.3, TPM > 10
log2 fold change of ssc-miR-708-3p in uterus [2]: low ≤ −0.3, TPM > 10
log2 fold change of ssc-miR-187 in uterus (Ctrl vs ZEN medium (1.5 mg/kg diet), 28 days in feed): vs ZEN medium ≤ −0.3, log2 fold change
fold change of ssc-miRNA-542-3p in uterus compared to the control group (ZEN high (4.6 mg/kg diet)): +12.6
fold change of ssc-miRNA-204 in uterus compared to the control group (ZEN high (4.6 mg/kg diet), lowest fold change of the group): −4.1
Response to ZEN treatment in uterus: hsa-miR-135b-5p [3]: Significantly decreased in ZEN high
Response to ZEN treatment in uterus: hsa-miR-301a-5p [3]: Significantly decreased in ZEN high
Response to ZEN treatment in uterus: ssc-miR-22-3p [3]: Significantly increased in ZEN high group,
Response to ZEN treatment in uterus: ssc-miR-22-5p [3]: Significantly increased in ZEN high group,
Response to ZEN treatment in uterus: ssc-miR-34a [3]: Significantly increased in ZEN high group
Response to ZEN treatment in uterus: ssc-miR-125a [3]: Significantly decreased in ZEN high
Response to ZEN treatment in uterus: ssc-miR-125b [3]: Significantly decreased in ZEN high
Response to ZEN treatment in uterus: ssc-miR-127 [3]: Significantly increased in ZEN high group
Response to ZEN treatment in uterus: ssc-miR-129a [3]: Significantly decreased in ZEN high
Response to ZEN treatment in uterus: ssc-miR-133a-5p [3]: Significantly increased in ZEN high group,
Response to ZEN treatment in uterus: ssc-miR-135 [3]: Significantly decreased in ZEN high
Response to ZEN treatment in uterus: ssc-miR-136 [3]: Significantly increased in ZEN high group,
Response to ZEN treatment in uterus: ssc-miR-140-3p [3]: Significantly increased in ZEN high group,
Response to ZEN treatment in uterus: ssc-miR-142-3p [3]: Significantly increased in ZEN high group,
Response to ZEN treatment in uterus: ssc-miR-146b [3]: Significantly decreased in ZEN high
Response to ZEN treatment in uterus: ssc-miR-182 [3]: Significantly increased in ZEN high group
Response to ZEN treatment in uterus: ssc-miR-183 [3]: Significantly increased in ZEN high group,
Response to ZEN treatment in uterus: ssc-miR-195 [3]: Significantly increased in ZEN high group,
Response to ZEN treatment in uterus: ssc-miR-204 [3]: Significantly decreased in ZEN high
Response to ZEN treatment in uterus: ssc-miR-369 [3]: Significantly increased in ZEN high group
Response to ZEN treatment in uterus: ssc-miR-378 [3]: Significantly increased in ZEN high group
Response to ZEN treatment in uterus: ssc-miR-432-5p [3]: Significantly increased in ZEN high group,
Response to ZEN treatment in uterus: ssc-miR-455-3p [3]: Significantly increased in ZEN high group,
Response to ZEN treatment in uterus: ssc-miR-455-5p [3]: Significantly increased in ZEN high group,
Response to ZEN treatment in uterus: ssc-miR-486 [3]: Significantly increased in ZEN high group,
Response to ZEN treatment in uterus: ssc-miR-493-3p [3]: Significantly increased in ZEN high group,
Response to ZEN treatment in uterus: ssc-miR-493-5p [3]: Significantly increased in ZEN high group,
Response to ZEN treatment in uterus: ssc-miR-708-3p [3]: Significantly decreased in ZEN high
Response to ZEN treatment in uterus: ssc-miR-758 [3]: Significantly increased in ZEN high group,
Response to ZEN treatment in uterus: put-miR-300 (ZEN medium (1.5 mg/kg diet) and high (4.6 mg/kg diet) group vs Ctrl, 28 days in feed): Significantly decreased in ZEN medium
fold change of ssc-miRNA-542-3p in uterus compared to the control group (ZEN medium (1.5 mg/kg diet)): +3.9
fold change of ssc-miRNA-187 in uterus compared to the control group (ZEN medium (1.5 mg/kg diet), lowest fold change of the group): −3.4
Response to ZEN treatment in uterus: ssc-miR-1 [4]: Significantly increased in both ZEN
Response to ZEN treatment in uterus: ssc-miR-143-5p [4]: Significantly increased in both ZEN
Response to ZEN treatment in uterus: ssc-miR-181c [4]: Significantly decreased in both ZEN
Response to ZEN treatment in uterus: ssc-miR-187 [4]: Significantly decreased in both ZEN
Response to ZEN treatment in uterus: ssc-miR-206 [4]: Significantly increased in both ZEN
Response to ZEN treatment in uterus: ssc-miR-335 [4]: Significantly decreased in both ZEN
Response to ZEN treatment in uterus: ssc-miR-424-5p [4]: Significantly increased in both ZEN
Response to ZEN treatment in uterus: ssc-miR-450a [4]: Significantly increased in both ZEN
Response to ZEN treatment in uterus: ssc-miR-450b-5p [4]: Significantly increased in both ZEN
Response to ZEN treatment in uterus: ssc-miR-450c-5p [4]: Significantly increased in both ZEN
Response to ZEN treatment in uterus: ssc-miR-497 [4]: Significantly increased in both ZEN
Response to ZEN treatment in uterus: ssc-miR-503 [4]: Significantly increased in both ZEN
Response to ZEN treatment in uterus: ssc-miR-542-3p [4]: Significantly increased in both ZEN
Response to ZEN treatment in uterus: ssc-miR-7135-3p [4]: Significantly increased in both ZEN
